According to patent US20250319133A1, “METHODS FOR IMPROVING BONE HEALTH WITH BOVINE MILK EXOSOME-ENRICHED PRODUCTS AND VITAMIN K2” (ABBOTT LABORATORIES, priority 2022, published 2025):

Test system: MC3T3-E1 cells
Assay: Alizarin Red S (ARS) extracellular mineralization assay, calcium deposits
Format: cell-based, murine
Conditions: 12 days in differentiation medium, 1 μM vitamin K2 and/or 15 μg/ml bovine milk exosomes
Experimental: Alizarin Red S (ARS) assay is an anthraquinone dye used to visualize and evaluate extracellular calcium deposits in cell culture. In embodiments of the invention, mineralization activity of differentiated osteoblasts are evaluated through ARS assay. To begin the assay, MC3T3-E1 pre-osteoblast cells were grown in MEM (minimum essential medium) culture medium supplemented with 10% v/v FBS (fetal bovine serum), […], 100 units/ml penicillin and 0.1 mg/ml streptomycin in a 5% CO2 and an atmosphere with 95% humidity. For osteogenic differentiation, these pre-osteoblast cells were seeded in 24-well plates at a density of 3×10^4 cells/well in complete medium for 1 day. The medium was then replaced by MEM containing 10% v/v FBS, […], 100 units/ml penicillin, 0.1 mg/ml streptomycin, […], and 50 μg/ml L-ascorbic acid. Specifically, three groups of MC3T3-E1 pre-osteoblast cells were treated. Group 1 was treated with 1 μM vitamin K2. Group 2 was treated with 15 μg/ml bovine milk exosomes. Group 3 was treated with a combination of 1 μM vitamin K2 and 15 μg/ml bovine milk exosomes. Group 4 was included as an untreated control group. In addition to analyzing Runx2 and LC3 molecular markers in Example 2, cell Groups 1-3 as described in Example 2 were treated in the presence of a differentiation medium for 12 days. […]

Which “calcium deposits (extracellular matrix mineralization), ARS micrographs” value does the source give for `CC(C)=CCC/C(C)=C/CC/C(C)=C/CC/C(C)=C/CC1=C(C)C(=O)c2ccccc2C1=O` [vitamin K2] here?
Its value is “abundant calcium deposits”.
